{
  "source": "patent US6740637B1",
  "about": "“Chlorophyll and bacteriochlorophyll derivatives, their preparation and pharmaceutical compositions comprising them” (priority 1998, dated 2004)",
  "key": {"M2R melanoma cells": {"test_system": "M2R melanoma cells", "assay": "PDT effect by clonogenic assay", "assay_type": "cell-based, mouse", "experimental": "The PDT effect was also determined by the clonogenic assay: 24 h after treatment of cells with various Chla-L-Ser-OMe concentrations and completion of the irradiation step, as described above (FIG. 12A), cultures were trypsinized and viable cell numbers determined by trypan blue exclusion. Appropriate dilutions were carried out and 250 cells/well were seeded into 6-well Costar plates. After 11-12 days in culture, the medium was aspirated and the colonies were fixed and stained with crystal violet in methanol and the number of colonies (more than 40 cells per colony) was counted under a dissecting microscope. […] Results are given as means±SD of triplicate determinations."}, "[1]": {"test_system": "Herpes simplex virus-1 (HSV-1) (in free suspension)", "assay": "PDT of HSV-1 in suspension, plaque assay", "assay_type": "cell-based, Herpes simplex virus type 1", "experimental": "(§1) For viral infection Vero cells (2×10^4/well) were cultured at 37° C. for 2 days in 24 well microplates. The culture medium was replaced with fresh medium containing 2% FBS and the cells infected with HSV-1 (200 μl) at multiplicity of infection (MOI) of 1-3. The cells were further incubated at 37° C. for 3 days. The medium was collected and centrifuged for 5 min in a clinical centrifuge to remove cells and cell debris. The concentration of viral particle was determined as described below and the suspension was aliquoted and kept at −80° C. until used.\n(§2) Vero cells were inoculated with 10 fold dilutions of HSV-1 and cultured for 2 h at 37° C. The medium was then replaced with fresh DMEM containing 2% FBS and 0.7% methylcellulose and the cells were further incubated for 3 days. The overlayer was then decanted and the cells fixed and stained with crystal violet. Virus induced plaques were manually counted and plaque forming units (PFU/ml) were calculated.\nHSV-1 suspended in culture medium to a concentration of 2×10^6 PFU/ml was dispensed (0.5 ml/well) into 24 well microplates and incubated in the dark for 1 h at 37° C. in the absence or presence of the indicated Chl-Ser concentrations. The experimental groups were then exposed to light for 10 min. The appropriate controls described above were included in each experiment. Viral survival was quantitated as described above."}, "M2R cells": {"test_system": "M2R cells", "assay_type": "cell-based, mouse", "experimental": "Alternatively, photodynamic toxicity was determined by [^3H] thymidine incorporation. In this case, changes in rates of [^3H] thymidine incorporation following PDT were performed as follows: Cell cultures (4-5×10^4 cells/well in about 40-50% confluency grown in 10% fetal bovine serum) were pulsed with 1μ Ci/ml thymidine [methyl-^3H] for 2 h at 37° C. Cultures were then washed twice with cold phosphate-buffered saline (PBS), treated with 7.5% ice cold trichloroacetic acid (TCA) for 30 min at 4° C., washed 2 times with ethanol. Cells were then dissolved in 0.3 ml of 1 M NaOH at 37° C. for 15 min. Samples of 100 μl were neutralized with 100 μl of 1N HCI and 4 ml of 0.1 M imidazole and counted in a 20:8 (vol/vol) xylene scintillator/Lumax mixture. […] Results are given as means±SD of triplicate determinations."}, "[2]": {"test_system": "Herpes simplex virus-1 (in infected Vero cells)", "assay": "PDT of HSV-1 in infected Vero cells, plaque assay", "assay_type": "cell-based, Herpes simplex virus type 1", "experimental": "Vero cells (Kidney African Green Monkey cells) were grown in DMEM+F12 medium buffered with 25 mM HEPES supplemented with 10% foetal bovine serum (FBS).Herpes simplex virus type 1 (HSV-1) was isolated from the eye of a patient with dentritic keratitis and maintained in culture.\nas §1, §2\nVero cells were infected with HSV-1 and incubated for four hours. Cells were then further incubated in dark for 1 h without or with Chl-Ser at the indicated concentrations. Cells were then washed three times with medium and immediately illuminated for 10 min. Subsequently the cells were incubated for 3 days for viral multiplication and media collected for quantitation. The appropriate controls described above were included in each experiment."}},
  "data": [
    {"molecule": "C=Cc1c(C)c2cc3nc(c4c5[n-]c(cc6nc(cc1[n-]2)C(C)=C6CC)c(C)c5C(=O)[C@@H]4C(=O)OC)[C@@H](CCC(=O)OC[C@H](N)C(=O)OC)[C@@H]3C.[Mg+2]", "note": "[Chla-L-Ser-OMe, L-seryl Methyl Ester Chlorophyllidea]", "values": [
      {"measurement": "number of surviving cells (colonies) without irradiation", "setting": "M2R melanoma cells; dark", "value": "not in the dark"},
      {"measurement": "number of surviving cells (colonies) after PDT", "setting": "M2R melanoma cells; irradiated, colonies counted after 11-12 days", "value": "reduced the number of surviving cells in a dose dependent manner"},
      {"measurement": "concentration of maximal toxicity", "setting": "[1]", "value": "> 20", "unit": "nM"},
      {"measurement": "EC50", "setting": "[1]; 1 h with Chl-Ser, light 10 min, read-out: half maximal dose of sensitizer", "value": "~10", "unit": "nM"},
      {"measurement": "toxicity in the dark", "setting": "[1]; tested concentration range, dark", "value": "not toxic in the dark"},
      {"measurement": "[3H] thymidine incorporation without irradiation", "setting": "M2R cells", "value": "not observed in the dark controls"},
      {"measurement": "[3H] thymidine incorporation after PDT", "setting": "M2R cells; 60 min with increasing concentrations, light source B, 24 h later", "value": "dose dependent reduction in the ability of the cells to incorporate [^3H] thymidine"},
      {"measurement": "concentration of maximal toxicity", "setting": "[2]", "value": "~500", "unit": "nM"},
      {"measurement": "EC50", "setting": "[2]; 1 h with Chl-Ser, illuminated 10 min, read-out: half maximal effect on viral survival", "value": "~150", "unit": "nM"},
      {"measurement": "effect in the dark", "setting": "[2]; same concentrations range, dark", "value": "no effect in the dark"}
    ]}
  ]
}
